# Test results from patent US20070149466A1, “Methods and related compositions for treating or preventing obesity, insulin resistance disorders, and mitochondrial-associated disorders” (priority 2005, published 2007).
# Key:
# [1] = tested on: HDAC; details: cited from earlier work; for concentration at which HDAC is inhibited: literature statements, in vitro or in vivo for SAHA, SBHA, CBHA
# [2] = tested on: Zucker diabetic fatty rats; experiment: Zucker diabetic rat model, 42 days oral dosing; assay type: in vivo; details: for daily body weights / food intake: 200 mg/kg orally twice a day, 43 days, vs vehicle and other groups; for fasting serum glucose levels: day 8, 15, 22, 29, 36 and 43, 200 mg/kg orally twice a day
# Description: Groups of 8 rats were used for each group (6 weeks old, 190±10 grams). […] Blood samples were collected from the retro-orbital sinus 35 minutes before glucose load (Fasting glucose) and 90 minutes post oral glucose load. Serum glucose levels were determined by means of a Hitachi Model 750 Automatic Analyzer.
# [3] = tested on: male C57BL/6J mice; experiment: Diet induced obesity (DIO) mouse model: body weight, food intake, body fat content (dexa scanning); assay type: in vivo; details: resveratrol 400 mg/kg/day co-administered with a high fat diet
# Description: The mice undergo an extensive phenotypic and molecular analysis to define the regulatory pathways affected by Sirt-1 activation.
# (§1) In this long-term study, 50 male C57BL6J mice (5 weeks of age) are analyzed during a period of 18 weeks.
# During the entire study, body weight and food intake
# are monitored twice weekly.
# During week 1, body composition is analyzed, for all groups, by dual energy X-ray absorptiometry (dexascan).
# During week 12, body weight composition is again analysed by dexascan for all groups.
# Diet. The standard rodent chow diet is obtained from UAR and the high fat diet is obtained from Research Diet. Mice are fed, either with chow diet (16% protein, 3% fat, 5% fiber, 5% ash) or with high fat diet (26.2% protein, 26.3% carbohydrate, 34.9% fat). Resveratrol is mixed with either powdered chow diet or powdered high fat diet and pellets are reconstituted. Control groups receive pellets as provided by the company. Due to the consistency of the high fat diet, it is not necessary to add water to mix it with the resveratrol. […]
# Determination of body fat content by Dexa scanning. […] Bone mineral density (BMD in g/cm^2) and body composition are determined by using the PIXIMUS software (version 1.4x, GE Medical Systems).
# The bottom panels show comparisons of body fat content, as analyzed by dexa scanning, at […] of treatment for mice in the four dietary groups. […]
# [4] = tested on: male C57BL/6J mice; experiment: Energy expenditure by indirect calorimetry (oxygen consumption) in DIO mice; assay type: in vivo; details: 400 mg/kg/day co-administrated with a high fat diet
# Description: Nocturnal energy expenditure of groups 1, 3 and 5 (chow diet, high fat diet and high fat diet 400 mg) is measured by indirect calorimetry. Energy expenditure. Energy expenditure is evaluated through indirect calorimetry by measuring oxygen consumption with the Oxymax apparatus (Columbus Instruments, Columbus, Ohio) during 12 h. This system consists of an open circuit with air coming in and out of plastic cages (one mouse per cage). Animals are allowed free access to food and water. A very precise CO2 and O2 sensor measures the difference in O2 and CO2 concentrations in both air volumes, which gives the amount of oxygen consumed in a period of time given that the air flow of air coming in the cage is constant. The data coming out of the apparatus are processed in a connected computer, analyzed, and shown in an exportable Excel file. The values are expressed as ml.kg^−1.h^−1, which is commonly known as the VO2.
# [5] = tested on: male C57BL/6J mice; experiment: Circadian (spontaneous locomotor) activity in DIO mice; assay type: in vivo; details: 400 mg/kg/day, high fat diet
# Description: During week 13, circadian activity of groups 3, 4 and 5 (high fat diet fed mice) is studied during a period of […]. A circadian activity measurement is performed on groups […]. Spontaneous locomotor activity is measured using individual boxes, each composed with a sliding floor, a detachable cage, and equipped with infra-red captors allowing measurement of ambulatory locomotor activity and rears. Boxes are linked to a computer using an electronic interface (Imetronic, Pessac, France). Mice are tested for 32 h in order to measure habituation to the apparatus as well as nocturnal and diurnal activities. The quantity of water consumed is measured during the test period using an automated lickometer.
# [6] = tested on: high fat diet fed C57BL/6J mice; experiment: Intraperitoneal and oral glucose tolerance tests in DIO mice; assay type: in vivo; details: 400 mg/kg/day, IPGTT and OGTT 2 g glucose/kg
# Description: During week 10, glucose tolerance is determined by subjecting all the animals to an intraperitoneal glucose tolerance test (IPGTT). Animals are fasted for 12 h prior to this test. During week 16, glucose tolerance is analysed by performing an oral glucose tolerance test (OGTT) on a subset of animals (n=5) of groups 3, 4 and 5, and an intraperitoneal insulin sensitivity test (IPIST) on another subset of animals (n=5). During these experiments, blood is also collected to analyze insulin levels. Animals are fasted 12 h prior these tests. Intraperitoneal glucose tolerance test—Oral glucose tolerance test. IPGTT and OGTT are performed in mice which are fasted overnight (12 h). Mice are either injected intraperitoneally (IPGTT) or orally gavaged (OGTT) with a solution of 20% glucose in sterile saline (0.9% NaCl) at a dose of 2 g glucose/kg body weight. Blood is collected from the tail vein, for glucose and insulin monitoring, prior to and at 15, 30, 45, 75, 90, 120, 150, 180 min after administration of the glucose solution. The incremental area of the glucose curve is calculated as a measure of insulin sensitivity, whereas the corresponding insulin levels indicate insulin secretory reserves.
# [7] = tested on: male C57BL/6 mice; experiment: Cold test (body temperature at 4° C.) in DIO mice; assay type: in vivo; details: 400 mg/kg/day coadministered with a high fat diet, p<0.05
# Description: During week 18, a cold test is performed on all animals by measuring body temperature of animals exposed to 4° C.
# [8] = Tolerability of resveratrol as a food additive; assay type: in vivo
# Description: as §1
# [9] = tested on: mice; experiment: Serum biochemical analysis in DIO mice; assay type: in vivo; details: 16 weeks, high fat plus 400 mg/kg/day
# Description: Diet induced obesity was established in mice as described above in Example 1.
# The values shown are based on an average of measurements from 10 animals for each dietary group. Levels of total cholesterol, HDL-cholestrol, LDL-cholesterol, triglycerides, free fatty acids, aspartate aminotransferase […], alanine aminotransferase (ALAT), and alkaline […] (ALP) were determined using standard procedures. ASAT, ALP and ALAT were measured by kinetic UV and colour tests using methods based on the recommendations of the ‘International Federation for Clinical Chemistry’ (IFCC) on an Olympus AU-400 automated laboratory work station. AST was quantified using the OSR6109 reagent system which is based on the activity of AST that catalyzes the transamination of aspartate and 2-oxoglutarate to L-glutamate and oxalacetate. […] The decrease in absorbance due to the consumption of NADH is measured at […] and is proportional to the AST activity in the sample. ALT was quantified using the OSR6107 reagent system which is based on the activity of ALT that transfers the amino group from alanine to 2-oxoglutarate to form pyruvate and glutamate. […] As with the AST measurement, consumption of NADH is measured at […] and is proportional to the amount of ALT activity in the sample. ALP is measured by determining the rate of conversion of p-nitro-phenyl phosphate to p-nitrophenol (pNP). […]
# [10] = tested on: mice; experiment: Hematoxylin and eosin staining of tissue sections of DIO mice; assay type: in vivo; details: 16 weeks, high fat plus 400 mg/kg/day vs control and high fat diets
# Description: After collection, tissues were fixed in 4% paraformaldehyde, processed and embedded in paraffin prior to sectioning (10 microns) and staining. Tissue processing, paraffin embedding, tissue sectioning and hematoxylin and eosin staining of histological sections were carried out using standard procedures and commercially available materials (see e.g., McManus J. F. A. and Mowry, R. W., Staining Methods. Histologic and Histochemcial, Harper and Row, New York 1960; Luna L. G., Hitopathological Methods and Color Atlas of Special Stains and Tissue Artifacts, Johnson Printers, Downers Grove, Ill. 1992; Gabe M., Techniques histologiques. Masson, Paris 1968; and world wide web at statlab.com).
# [11] = tested on: mice; experiment: Succinate dehydrogenase staining of brown adipose tissue and muscle of DIO mice; assay type: in vivo; details: 16 weeks, HF+R400 vs HF diet
# Description: Succinate dehydrogenase is a marker of mitochondrial activity and produces a dark stain in the photos. Tissues were collected and immediately frozen in methylbutane, then kept at −80° C. prior to sectioning and staining. Succinate Dehydrogenase staining was carried out using standard procedures and commercially available reagents (see e.g., Reichmann H and Wildenauer D, Histochemistry, 96: 251-3 (1991)).
# [12] = tested on: mice; experiment: Transmission electron microscopy of gastrocnemius muscle and brown adipose tissue of DIO mice; assay type: in vivo; details: 16 weeks
# Description: Transmission electron microscopy was carried out using standard techniques as described below. The mitochondria can be seen as the darker oblong Z lines crossing the I lines.
# Transmission electron microscopy was carried out using standard techniques as described below. Fat droplets may be observed at either magnification as white or light gray droplets and mitochondria can be observed at the higher magnification as roundish striated structures.
# Transmission Electronic Microscopy/Preparation of Samples: The biopsies of gastrocnemius muscle and brown adipose tissue were cut in pieces of 1 mm and fixed immediately after collection in Kamovsky fixative (glutaraldehyde in cacodylate buffer) and kept at 4° C. without time limitation. The second step is the post-fixation with 1% osmium tetraoxide in 0.1M cacodylate buffer for 1 h at 4° C. Tissues were then dehydrated through successive baths of graded alcohol followed by a propylene oxide bath, and then a treatment with a propylene oxide and resine mix before to be embedded in a pure epoxy resine (araldite, Epon 812) which becomes solid after 48 h at 60° C. Semithin sections were cut at 2 μm and stained with toluidine blue, and histologically analysed by light microscopy. Ultrathin sections were cut at 70 nm and contrasted with uranyl acetate and lead citrate, and examined with a Philips 208 electron microscope.
# [13] = tested on: PGC1 alpha; experiment: Immunoblot of PGC1 alpha acetylation in gastrocnemius muscle nuclear extracts; assay type: in vivo, mice; details: high fat diet plus 400 mg/kg resveratrol vs high fat diet, 15 weeks
# Text: Following immunoprecipitation with a PGC 1 alpha antibody (Santa Cruz Biotechnology, cat #SC-13067), secondary western blots were probed with either a acetylated lysine specific monoclonal (Cell Signaling Technology, Cat #9441; top left panel) or a PGC1alpha antibody (Santa Cruz Biotechnology, cat #SC-13067; lower left panel). Exposures were scanned and the acetylation status of PGC1alpha compared to total PGC1alpha of animals on either the HF or HF+[…] is shown in the right hand panel.
# [14] = high fat diet plus 400 mg/kg/day resveratrol
compound,measurement,setting,value
"O=C(/C=C/c1cccc(C(=O)NO)c1)NO [CBHA, m-carboxy-cinnamic acid bishydroxamic acid]",concentration at which HDAC is inhibited,[1],micromolar concentration or lower
C/C=C1\NC(=O)[C@H]2CSSCC/C=C/[C@H](CC(=O)N[C@H](C(C)C)C(=O)N2)OC(=O)[C@H](C(C)C)NC1=O [Depsipeptide],concentration at which HDAC is inhibited,[1],micromolar concentrations
"CN(C)C(=N)N=C(N)N [metformin, reference compound]",daily body weights,[2],no statistical difference
same,food intake,[2],no statistical difference
same,fasting serum glucose levels,[2],no difference
"Oc1ccc(/C=C/c2cc(O)cc(O)c2)cc1 [resveratrol, 3,5,4′-Trihydroxy-trans-stilbene]",diet-induced obesity,[3],prevents diet-induced obesity
same,energy expenditure,[4],increases energy expenditure
same,circadian locomotor activity,[5],significantly diminishes the circadian locomotor activity
same,glucose tolerance,[6],increases glucose tolerance
same,adaptive thermogenesis (body temperature during 6 h cold test),[7],enhances adaptive thermogenesis
same,food aversion,[8],does not cause food aversion
same,tolerability,[8],well tolerated
same,daily body weights,[2],no statistical difference
same,food intake,[2],no statistical difference
same,fasting serum glucose levels,[2],no difference
same,"serum biochemical markers (total, HDL and LDL cholesterol, triglycerides, free fatty acids, ASAT, ALAT, ALP)",[9],fell within the normal range
same,"histological changes (liver, epididymal WAT, BAT, gastrocnemius muscle; hematoxylin and eosin)",[10],few histological changes
same,"succinate dehydrogenase staining (marker of mitochondrial activity), brown adipose tissue",[11],significantly higher
same,"succinate dehydrogenase staining (marker of mitochondrial activity), gastrocnemius",[11],significantly higher
same,"succinate dehydrogenase staining, soleus",[11],little change
same,"mitochondria in gastrocnemius muscle (non-oxidative fibers), transmission electron microscopy",[12]; HF+R400 vs control or high fat diets,more mitochondria
same,"fat droplets in brown adipose tissue, transmission electron microscopy",[12]; [14],smaller fat droplets
same,"mitochondria in brown adipose tissue, transmission electron microscopy",[12]; [14],more mitochondria
same,PGC1 alpha deacetylation,[13],increases PGC1 alpha deacetylation
depudecin,concentration at which HDAC is inhibited,[1],micromolar concentrations
trichostatin A [TSA],inhibition of mammalian HDAC,[1]; Yoshida et al. (1990),potent inhibitor
